{
  "source": "patent US4849410A",
  "about": "“Pseudopterosin and synthetic derivatives thereof” (The Regents of the University of California, priority 1987, dated 1989)",
  "key": {"B16 melanoma": {"system": "B16 melanoma", "experiment": "Activity in mice bearing ip B16 melanoma", "assay_type": "in vivo, female B6D2F1 mice", "method": "(§1) Compound I was also evaluated for activity against solid tumors as follows:\n(§2) One-half ml of a 10 percent (v:v) brei of tumor cells prepared from solid B16 melanoma or M5076 reticulum cell sarcoma was implanted ip in female B6D2F1 mice which were randomized to treatment groups of 8 animals each. Treatment was initiated 24 hours after tumer inoculation and was continued daily for 10 days (cisplatin was administered q4Dx4 on Days 1, 5, 9 and 13). Mice were monitored daily for 60 days, and the median day of death was determined compared to three groups of untreated controls to provide percent increase in lifespan (ILS). ILS values of greater than or equal to 50 percent represent biologically significant antitumor effects. Cisplatin was curative in M5076 with 6/8 tumor-free survivors on Day 60 at the top dose level."}, "[1]": {"system": "M5076 reticulum cell sarcoma", "experiment": "Activity in mice bearing ip M5076 reticulum cell sarcoma", "assay_type": "in vivo, female B6D2F1 mice", "method": "as §1, §2"}, "P388 leukemia": {"system": "P388 leukemia", "experiment": "Evaluation in mice bearing ip P388 leukemia", "assay_type": "in vivo, female B6D2F1 mice", "method": "Compound I was also evaluated in mice bearing P388 Leukemia as follows:\nCompound I was administered to the mice as a solution by first dissolving it in N,N-dimethylacetamide, adding an equal volume of Cremophor EL and then 8 volumes of water. The drug concentration was such that the desired dose was delivered in a volume of 0.5 ml per mouse. Dilutions from the highest dose in a dose-response study were made by the addition of water so that organic component of the formulation decreased with dose reduction; the drug remained in solution.\n10^6 P388 leukemia cells were implanted intraperitoneal in female B6D2F1 mice which were randomized to treatment groups of six animals each. Treatment was initiated 24 hours after tumor implantation and was continued daily for five days (Cisplatin was administered on Days 1 and 5 for the Group 1 mice). Mice were weighted as groups on Days 1, 5 and 9 to provide an indication of drug toxicity. Mice were monitored for survival daily for 45 days, and the median day of death was determined compared to three groups of untreated controls to provide percent increase in lifespan (ILS). ILS values of greater than or equal to 40 percent represent actual reduction in tumor cell burden during the course of treatment and are taken as indications of biologically significant antitumor effect."}, "[2]": {"system": "Intraperitoneally Administered Phenylquinone", "experiment": "Phenylquinone Assay for Analgesia (writhing)", "assay_type": "in vivo, mice", "details": "for Mean Writhes per Animal / No. Writhes / % Change Relative to Control: 25 mg/kg; for No. Writhes: total of group; for % Change Relative to Control: writhes per animal; for Analgesic Activity: summary", "method": "d. Phenylquinone Assay for Analgesia\nTest compound is injected subcutaneously into mice. After 30 minutes, phenylquinone is injected intraperitoneally to cause pain as indicated by writhing.\nTest compound was administered subcutaneously in sesame oil at concentrations up to 5 mg per ml depending on the test compound dosage protocol. The highest dose was 50 mg per Kg. Control groups received sesame oil subcutaneously."}, "[3]": {"system": "Phorbol Myristate Acetate (PMA) Induced Topical Inflammation of the Mouse Ear", "experiment": "Mouse Ear Anti-Inflammatory Assay (PMA, topical)", "assay_type": "in vivo", "details": "for Mean Ear Weight ± S.E.: Table IV, in mg; for Anti-inflammatory Activity: summary", "method": "a. Mouse Ear Anti-Inflammatory Assay\nTest compound and phorbol myristate acetate (PMA) are topically applied simultaneously to the pinnae of the ears of mice. Three hours twenty minutes after application, mice are sacrificed, ears removed and standard sized bores taken. Edema (inflammation) is measured as the difference in weight between control and treated ears.\nThe vheicle or carrier for the compounds used in the inflammatory and analgesic assays was as follows; For the mouse ear inflammatory assay, the vehicle was acetone. Controls received 25 microliters of acetone. Test compounds were applied to the experimental animals in 25 microliter volumes. For the sperm motility and fertilized sea urchin egg assays, the compounds were dissolved in 10 microliters undenatured ethanol."}, "[4]": {"details": "Group 2, cisplatin 1 mg/kg ip, Days 1-5"}, "[5]": {"details": "Group 2, cisplatin 2 mg/kg ip, Days 1-5"}, "[6]": {"details": "Group I, cisplatin 3 mg/kg ip, Days 1 and 5"}, "[7]": {"details": "Group I, cisplatin 6 mg/kg ip, Days 1 and 5"}},
  "data": [
    {"smiles": "N.N.[Cl][Pt][Cl]", "note": "[Cisplatin, reference compound]", "values": [
      {"measurement": "Increase to Lifespan", "setting": "B16 melanoma; cisplatin 3 mg/kg ip", "result": 36, "unit": "%"},
      {"measurement": "Median Survival Time", "setting": "B16 melanoma; cisplatin 3 mg/kg ip", "result": 30, "unit": "days"},
      {"measurement": "Weight Change on Day 9", "setting": "B16 melanoma; cisplatin 3 mg/kg ip", "result": "+1.6 gm"},
      {"measurement": "Increase to Lifespan", "setting": "B16 melanoma; cisplatin 6 mg/kg ip", "result": 77, "unit": "%"},
      {"measurement": "Median Survival Time", "setting": "B16 melanoma; cisplatin 6 mg/kg ip", "result": 39, "unit": "days"},
      {"measurement": "Weight Change on Day 9", "setting": "B16 melanoma; cisplatin 6 mg/kg ip", "result": "+0.5 gm"},
      {"measurement": "Increase to Lifespan", "setting": "[1]; cisplatin 3 mg/kg ip", "result": 121, "unit": "%"},
      {"measurement": "Median Survival Time", "setting": "[1]; cisplatin 3 mg/kg ip", "result": 46.5, "unit": "days"},
      {"measurement": "Weight Change on Day 9", "setting": "[1]; cisplatin 3 mg/kg ip", "result": "+0.1 gm"},
      {"measurement": "Increase to Lifespan", "setting": "[1]; cisplatin 5 mg/kg ip", "result": "> 200", "unit": "%"},
      {"measurement": "Median Survival Time", "setting": "[1]; cisplatin 5 mg/kg ip", "result": "> 60", "unit": "days"},
      {"measurement": "Weight Change on Day 9", "setting": "[1]; cisplatin 5 mg/kg ip", "result": -1.6, "unit": "gm"},
      {"measurement": "tumor-free survivors on Day 60", "setting": "[1]; top dose level of cisplatin", "result": "6/8"},
      {"measurement": "Increase to Lifespan", "setting": "P388 leukemia; [4]", "result": 75, "unit": "%"},
      {"measurement": "Median Survival Time", "setting": "P388 leukemia; [4]", "result": 17.5, "unit": "days"},
      {"measurement": "Weight Change Day 5", "setting": "P388 leukemia; [4]", "result": -0.2, "unit": "gm"},
      {"measurement": "Weight Change Day 9", "setting": "P388 leukemia; [4]", "result": "+0.1 gm"},
      {"measurement": "Increase to Lifespan", "setting": "P388 leukemia; [5]", "result": 200, "unit": "%"},
      {"measurement": "Median Survival Time", "setting": "P388 leukemia; [5]", "result": 30, "unit": "days"},
      {"measurement": "Weight Change Day 5", "setting": "P388 leukemia; [5]", "result": -2.5, "unit": "gm"},
      {"measurement": "Weight Change Day 9", "setting": "P388 leukemia; [5]", "result": -0.9, "unit": "gm"},
      {"measurement": "Increase to Lifespan", "setting": "P388 leukemia; [6]", "result": 127, "unit": "%"},
      {"measurement": "Median Survival Time", "setting": "P388 leukemia; [6]", "result": 25, "unit": "days"},
      {"measurement": "Weight Change Day 5", "setting": "P388 leukemia; [6]", "result": "+0.3 gm"},
      {"measurement": "Weight Change Day 9", "setting": "P388 leukemia; [6]", "result": "+1.1 gm"},
      {"measurement": "Increase to Lifespan", "setting": "P388 leukemia; [7]", "result": 177, "unit": "%"},
      {"measurement": "Median Survival Time", "setting": "P388 leukemia; [7]", "result": 30.5, "unit": "days"},
      {"measurement": "Weight Change Day 5", "setting": "P388 leukemia; [7]", "result": -1.2, "unit": "gm"},
      {"measurement": "Weight Change Day 9", "setting": "P388 leukemia; [7]", "result": -1.1, "unit": "gm"}
    ]},
    {"smiles": "CC(C)=CCCC(C)C1CCC(C)c2c1cc(C)c(O)c2OC1OCC(O)C(O)C1O", "note": "(stereo not shown) [Compound IX]", "values": [
      {"measurement": "Mean Writhes per Animal", "setting": "[2]", "result": 6.8},
      {"measurement": "No. Writhes", "setting": "[2]", "result": 68},
      {"measurement": "% Change Relative to Control", "setting": "[2]", "result": -26, "unit": "%"},
      {"measurement": "Analgesic Activity", "setting": "[2]", "result": "Active"},
      {"measurement": "Mean Ear Weight ± S.E.", "setting": "[3]; 25.0 ug/ear", "result": "15.85 ± 2.51"},
      {"measurement": "Mean Ear Weight ± S.E.", "setting": "[3]; 50.0 ug/ear", "result": "14.04 ± 2.38"},
      {"measurement": "Anti-inflammatory Activity", "setting": "[3]", "result": "Active"}
    ]},
    {"smiles": "CC(=O)OC1COC(Oc2c(O)c(C)cc3c2C(C)CCC3C(C)CCC=C(C)C)C(O)C1O", "note": "(stereo not shown) [Compound VIII]", "values": [
      {"measurement": "Analgesic Activity", "setting": "[2]", "result": "Active"},
      {"measurement": "Mean Ear Weight ± S.E.", "setting": "[3]; 25.0 ug/ear", "result": "13.93 ± 2.59"},
      {"measurement": "Mean Ear Weight ± S.E.", "setting": "[3]; 50.0 ug/ear", "result": "12.07 ± 1.69"},
      {"measurement": "Anti-inflammatory Activity", "setting": "[3]", "result": "Active"}
    ]},
    {"smiles": "COc1c(C)c2c3c(c1O)C(C)CCC3C(C)CC2C=C(C)C", "note": "(stereo not shown) [Compound XII]", "values": [
      {"measurement": "Mean Writhes per Animal", "setting": "[2]", "result": 12.5},
      {"measurement": "No. Writhes", "setting": "[2]", "result": 25},
      {"measurement": "% Change Relative to Control", "setting": "[2]", "result": "+6%"}
    ]},
    {"smiles": "CC(=O)OC1=C(C)C2(O)C3=C(C1=O)C(C)CCC3C(C)CC2C=C(C)C", "note": "(stereo not shown) [Compound XI]", "values": [
      {"measurement": "Mean Writhes per Animal", "setting": "[2]", "result": 12.3},
      {"measurement": "No. Writhes", "setting": "[2]", "result": 37},
      {"measurement": "% Change Relative to Control", "setting": "[2]", "result": "+4%"}
    ]},
    {"smiles": "CC(=O)OC1C(O)COC(Oc2c(O)c(C)cc3c2C(C)CCC3C(C)CCC=C(C)C)C1O", "note": "(stereo not shown) [Compound X]", "values": [
      {"measurement": "Mean Ear Weight ± S.E.", "setting": "[3]; 50.0 ug/ear", "result": "10.64 ± 1.93"},
      {"measurement": "Anti-inflammatory Activity", "setting": "[3]", "result": "Active"}
    ]},
    {"smiles": "COc1ccc2c(c1)c(CC(=O)O)c(C)n2C(=O)c1ccc(Cl)cc1", "note": "[indomethacin, reference compound]", "values": [
      {"measurement": "decrease in edema", "setting": "[3]; 50 microgram", "result": 50, "unit": "%"}
    ]}
  ]
}
